According to patent US12122764B2, “IKAROS zinc finger family degraders and uses thereof” (Gilead Sciences, Inc., priority 2021, dated 2024):

Target: T1, IKZF2 (Homo sapiens, UniProt Q96SW2+Q9UKS7)
T1 construct: expressed in transfected cells
Assay: HiBiT protein tagging assay, in vitro IKZF2 degradation (HEK293)
Type: cell-based
Conditions: IKZF2-HiBiT reporter Flp-In T-REx HEK293 cells, doxycycline-induced, compound overnight (18-24 hr), normalized to DMSO control; for Dmax: read-out: IKZF2 Dmax (maximum degradation at the highest concentration tested)
Procedure: In vitro degradation of IKZF1 and IKZF2 was measured using HiBiT protein tagging and detection technology (Promega).
HiBiT technology (Promega) was used to develop the quantitative assays to measure the cellular IKZFs level by tagging an 11 amino acid HiBit peptides VSGWRLFKKIS (SEQ ID NO:1) to the protein of interest. Reporter plasmids were generated by fusing a linker sequence (GSSGGSSG; SEQ ID NO:2) followed by the HiBiT tag at the C terminus of IKZF1 and IKZF2. The fusion fragments were subsequently cloned into pcDNA5 pcDNA™5/FRT/TO plasmids (Thermo Fisher, cat #V652020) downstream of the Tetracycline operator. The resulting plasmids were co-transfected with pOG44 Flp-Recombinase Expression Vector (Thermo Fisher, cat #V600520) into Flp-In™ T-REx HEK293 line (Thermo Fisher, cat #R78077) and a stable cell pool was selected by adding 100 μg/ml of Hygromycin (Thermo Fisher, cat #10687010). The reporter cell enabled Tet-On inducible reporter expression from a single copy of the integrated gene.
On Day 1, Cells were grown to ˜80% confluency in TC medium (DMEM Glutamax (Gibco10569), 10% Tet free FBS (Takara 631106), and PenStrep Glutamin (Gibco 10378)) in tissue culture flasks. Doxycycline was then added to a final concentration of 1 μg/ml to induce reporter expression at 37° C. overnight.
On Day 2, 125 nL of serially-diluted solution of testing compounds were dispensed into 384-well white solid assay plates via ECHO acoustic liquid handler. Cells were lifted by 0.25% Trypsin (Gibco 25200) then pelleted by centrifugation (Beckman Avanti J-E) at 500×g for 5 min. Cell pellets were resuspended in TC medium at the concentration of 3e5/mL and 25 μL of cell suspension were added into each well of compound-spotted plates. The plates were returned to a 37° C. incubator overnight (18-24 hr).
On Day 3, assay plates were removed from the TC incubator and 25 μL of Nano-Glo lytic detection system (Promega, cat #N3030) was added to each well. Plates were incubated at r.t. for 3 min with shaking, and luminescence was read using an Envision reader (Perkin Elmer).
All raw data was normalized to DMSO control (final concentration: 0.5%) wells as POC and plotted out for EC50 and Dmax (Maximum degradation at the highest concentration tested in the assay).

T1 sequence (Q9UKS7 1-500 isoform Q9UKS7-2): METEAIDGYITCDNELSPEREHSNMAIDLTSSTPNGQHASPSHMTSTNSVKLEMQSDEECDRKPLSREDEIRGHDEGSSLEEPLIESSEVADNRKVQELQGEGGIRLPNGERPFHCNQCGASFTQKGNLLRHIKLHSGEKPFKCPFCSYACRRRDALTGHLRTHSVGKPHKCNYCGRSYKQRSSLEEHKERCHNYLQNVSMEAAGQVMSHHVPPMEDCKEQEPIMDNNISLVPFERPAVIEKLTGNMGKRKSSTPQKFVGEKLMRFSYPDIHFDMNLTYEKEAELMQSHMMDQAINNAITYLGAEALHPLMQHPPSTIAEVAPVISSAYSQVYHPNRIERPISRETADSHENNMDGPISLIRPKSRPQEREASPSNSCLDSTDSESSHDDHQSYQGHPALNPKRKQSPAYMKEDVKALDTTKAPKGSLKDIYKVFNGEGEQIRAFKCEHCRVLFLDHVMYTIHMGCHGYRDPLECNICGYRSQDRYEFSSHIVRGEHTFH
T1 sequence (Q96SW2 whole entry): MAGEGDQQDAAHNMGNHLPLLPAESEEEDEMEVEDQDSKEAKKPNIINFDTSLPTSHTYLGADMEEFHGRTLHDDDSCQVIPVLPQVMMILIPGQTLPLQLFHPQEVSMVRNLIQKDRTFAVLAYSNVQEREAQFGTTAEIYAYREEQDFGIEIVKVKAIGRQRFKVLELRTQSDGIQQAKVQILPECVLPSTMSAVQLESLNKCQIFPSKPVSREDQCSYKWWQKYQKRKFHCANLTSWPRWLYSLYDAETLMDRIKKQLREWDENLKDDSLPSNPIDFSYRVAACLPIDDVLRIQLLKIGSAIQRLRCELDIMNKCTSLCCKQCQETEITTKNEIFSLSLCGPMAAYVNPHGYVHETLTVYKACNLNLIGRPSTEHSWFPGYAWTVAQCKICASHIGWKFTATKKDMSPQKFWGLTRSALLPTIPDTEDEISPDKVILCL
T1 sequence (Q16531 whole entry partner): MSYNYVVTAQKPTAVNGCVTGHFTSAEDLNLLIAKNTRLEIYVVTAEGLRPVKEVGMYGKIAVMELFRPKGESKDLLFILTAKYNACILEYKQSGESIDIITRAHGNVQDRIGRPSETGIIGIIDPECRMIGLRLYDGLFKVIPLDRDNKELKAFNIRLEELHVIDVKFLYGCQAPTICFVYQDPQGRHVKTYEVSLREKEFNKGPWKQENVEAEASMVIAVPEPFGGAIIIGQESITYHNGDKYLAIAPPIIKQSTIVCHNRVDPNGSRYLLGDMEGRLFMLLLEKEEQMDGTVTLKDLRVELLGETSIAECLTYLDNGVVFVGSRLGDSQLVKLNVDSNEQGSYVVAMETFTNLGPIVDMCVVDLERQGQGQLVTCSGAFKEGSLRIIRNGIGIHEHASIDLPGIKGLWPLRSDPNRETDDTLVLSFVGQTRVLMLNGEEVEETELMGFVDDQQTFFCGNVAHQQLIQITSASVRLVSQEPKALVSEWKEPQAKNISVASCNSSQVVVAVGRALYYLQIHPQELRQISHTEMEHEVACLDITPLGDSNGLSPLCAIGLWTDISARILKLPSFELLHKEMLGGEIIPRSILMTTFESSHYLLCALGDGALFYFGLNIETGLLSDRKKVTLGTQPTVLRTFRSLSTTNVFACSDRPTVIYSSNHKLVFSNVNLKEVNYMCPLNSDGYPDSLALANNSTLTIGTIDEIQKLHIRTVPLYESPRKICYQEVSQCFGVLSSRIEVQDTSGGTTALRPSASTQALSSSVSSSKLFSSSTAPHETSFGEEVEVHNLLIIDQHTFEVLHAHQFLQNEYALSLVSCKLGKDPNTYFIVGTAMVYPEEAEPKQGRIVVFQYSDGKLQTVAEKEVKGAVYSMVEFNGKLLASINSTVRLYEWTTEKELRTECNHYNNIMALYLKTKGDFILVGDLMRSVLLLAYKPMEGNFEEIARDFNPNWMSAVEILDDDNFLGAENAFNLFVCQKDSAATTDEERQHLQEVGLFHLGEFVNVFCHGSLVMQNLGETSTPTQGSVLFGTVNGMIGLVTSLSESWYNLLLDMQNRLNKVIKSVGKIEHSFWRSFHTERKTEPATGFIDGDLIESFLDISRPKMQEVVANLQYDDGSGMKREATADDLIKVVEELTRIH

| Dmax | Compound | IKZF2 Dmax (maximum degradation at the highest concentration tested) |
| --- | --- | --- |
| 57% | C[C@H](c1ccccc1)N1CC[C@H](NCc2ccccc2)[C@@H](Oc2ccc3c(c2)CN(C2CCC(=O)NC2=O)C3=O)C1 (mixture of isomers) [Example 51] | – |
| 87% | O=C1CCC(N2Cc3cc(OC4CN(Cc5ccncc5)CCC4NCc4ccccc4)ccc3C2=O)C(=O)N1 (racemic) [Example 9] | – |
| 53% | CN1CC[C@@H](NCc2ccccc2)[C@H](Oc2ccc3c(c2)CN(C2CCC(=O)NC2=O)C3=O)C1 (relative stereo) [Example 1, 3-(5-((trans-4-(benzylamino)-1-methylpiperidin-3-yl)oxy)-1-oxoisoindolin-2-yl)piperidine-2,6-dione] | – |
| 98% | O=C1CCC(N2Cc3cc(OC4CN(Cc5ccccc5)CCC4NCC4CC4)ccc3C2=O)C(=O)N1 (racemic) [Example 37] | – |
| 57% | O=C1CCC(N2Cc3cc(O[C@@H]4CN(CC(F)(F)F)CC[C@H]4NCc4ccccc4)ccc3C2=O)C(=O)N1 (relative stereo) [Example 40, 3-(5-((trans-4-(benzylamino)-1-(2,2,2-trifluoroethyl)piperidin-3-yl)oxy)-1-oxoisoindolin-2-yl)piperidine-2,6-dione] | – |
| 28% | N#CCN1CCC(NCc2ccccc2)C(Oc2ccc3c(c2)CN(C2CCC(=O)NC2=O)C3=O)C1 (racemic) [Example 41] | – |
| 75% | O=C1CCC(N2Cc3cc(O[C@H]4CN(Cc5cc(F)cc(F)c5)CC[C@@H]4NCc4ccccc4)ccc3C2=O)C(=O)N1 (mixture of isomers) [Example 25] | – |
| 97% | O=C1CCC(N2Cc3cc(O[C@H]4CN(Cc5ccc(F)cc5)CC[C@@H]4NCc4ccccc4)ccc3C2=O)C(=O)N1 (mixture of isomers) [Example 18] | – |
| 86% | O=C1CCC(N2Cc3cc(OC4CN(Cc5ccccc5)CCC4NCCF)ccc3C2=O)C(=O)N1 (racemic) [Example 59] | – |
| 92% | O=C1CCC(N2Cc3cc(OC4CN(Cc5cccnc5)CCC4NCc4ccccc4)ccc3C2=O)C(=O)N1 (racemic) [Example 7] | – |
| 47% | CC(C)N1CCC(NCc2ccccc2)C(Oc2ccc3c(c2)CN(C2CCC(=O)NC2=O)C3=O)C1 (racemic) [Example 5] | – |
| – | O=C1CCC(N2Cc3cc(O[C@@H]4CN(Cc5ccccc5)CC[C@H]4N4CC(Oc5ccccc5Cl)C4)ccc3C2=O)C(=O)N1 (relative stereo) [Example 54, 3-(5-(((3,4-trans)-1-benzyl-4-(3-(2-chlorophenoxy)azetidin-1-yl)piperidin-3-yl)oxy)-1-oxoisoindolin-2-yl)piperidine-2,6-dione] | 94% |
| 97% | CCN[C@H]1CCN(Cc2ccc(F)cc2F)C[C@@H]1Oc1ccc2c(c1)CN(C1CCC(=O)NC1=O)C2=O (mixture of isomers) [Example 38] | – |
| 51% | CCN1CCC(NCc2ccccc2)C(Oc2ccc3c(c2)CN(C2CCC(=O)NC2=O)C3=O)C1 (racemic) [Example 4] | – |
| 69% | O=C1CCC(N2Cc3cc(O[C@H]4CN(Cc5ccccc5)CC[C@@H]4NCc4ccccc4Cl)ccc3C2=O)C(=O)N1 (mixture of isomers) [Example 10] | – |
| 92% | CCNC1CCN(Cc2ccc(F)cc2)CC1Oc1ccc2c(c1)CN(C1CCC(=O)NC1=O)C2=O (racemic) [Example 27] | – |
| 89% | O=C1CCC(N2Cc3cc(O[C@H]4CN(Cc5cccc(F)c5)CC[C@@H]4NCc4ccccc4)ccc3C2=O)C(=O)N1 (mixture of isomers) [Example 19] | – |
| 48% | O=C1CCC(N2Cc3cc(OC4CN(Cc5ccccc5)CCC4Nc4ccccc4)ccc3C2=O)C(=O)N1 (stereo not drawn) [Example 43, 3-(5-(((3,4-trans)-1-benzyl-4-(phenylamino)piperidin-3-yl)oxy)-1-oxoisoindolin-2-yl)piperidine-2,6-dione] | – |
| 96% | CCNC1CCN(Cc2ccc3ccccc3c2)CC1Oc1ccc2c(c1)CN(C1CCC(=O)NC1=O)C2=O (racemic) [Example 56] | – |
| 39% | O=C1CCC(N2Cc3cc(O[C@H]4CN(c5ccccc5)C[C@@H]4NCc4ccccc4)ccc3C2=O)C(=O)N1 (stereo partly drawn) [Example 39, 3-(5-(((3S,4S)-4-(benzylamino)-1-phenylpyrrolidin-3-yl)oxy)-1-oxoisoindolin-2-yl)piperidine-2,6-dione] | – |
| 89% | O=C1CCC(N2Cc3cc(O[C@H]4CN(Cc5ccccc5)CC[C@@H]4NCc4ccc(F)cc4)ccc3C2=O)C(=O)N1 (mixture of isomers) [Example 26] | – |
| 27% | O=C1CCC(N2Cc3cc(O[C@H]4CN(CCC(F)(F)F)CC[C@@H]4NCc4ccccc4)ccc3C2=O)C(=O)N1 (mixture of isomers) [Example 52] | – |
| 85% | O=C1CCC(N2Cc3cc(O[C@H]4CN(Cc5ccccc5Cl)CC[C@@H]4NCc4ccccc4)ccc3C2=O)C(=O)N1 (mixture of isomers) [Example 3] | – |
| 98% | CCN[C@H]1CCN(Cc2ccc(F)cc2)C[C@@H]1Oc1ccc2c(c1)CN(C1CCC(=O)NC1=O)C2=O (some centres unmarked) [Example 64] | – |
| 83% | CCNC1CCN(Cc2cccc(-c3ccccc3)c2)CC1Oc1ccc2c(c1)CN(C1CCC(=O)NC1=O)C2=O (racemic) [Example 60] | – |
| 96% | N[C@@H]1CCN(Cc2ccccc2)C[C@H]1Oc1ccc2c(c1)CN(C1CCC(=O)NC1=O)C2=O (relative stereo) [Example 42, 3-(5-((trans-4-amino-1-benzylpiperidin-3-yl)oxy)-1-oxoisoindolin-2-yl)piperidine-2,6-dione] | – |

| Compound | Dmax | IKZF2 Dmax (maximum degradation at the highest concentration tested) |
| --- | --- | --- |
| COc1ccc(CN2CC[C@H](NCc3ccccc3)[C@@H](Oc3ccc4c(c3)CN(C3CCC(=O)NC3=O)C4=O)C2)cc1 (mixture of isomers) [Example 33] | 94% | – |
| O=C1CCC(N2Cc3cc(O[C@H]4CN(Cc5ccc(-c6ccccc6)cc5)CC[C@@H]4NCc4ccccc4)ccc3C2=O)C(=O)N1 (mixture of isomers) [Example 31] | 101% | – |
| O=C1CCC(N2Cc3cc(O[C@H]4CN(Cc5ccc(C(F)(F)F)cc5)CC[C@@H]4NCc4ccccc4)ccc3C2=O)C(=O)N1 (mixture of isomers) [Example 34] | 80% | – |
